Laboratory results taken from patent US20130224855A1, “CULTURE MEDIUM FOR EUKARYOTIC CELLS” (priority 2010, published 2013).
Peptide text beside a SMILES is read from it.

Test system: IgG expressing CHO cell line (CHO-2: ATCC CRL 11397, producing IgG4)
Test: Growth and production curves of IgG expressing CHO cells in suspension culture in supplemented chemically defined medium
Format: cell-based, Chinese hamster
Conditions: for Cell growth (area under curve) after 14 days: dimensionless AUC
Protocol: The cell culture assay was carried out in commercially available IS CHO-CD medium (Irvine Scientific, Cat. No. 91119). […] Penicillin and streptomycin were added to prevent any bacterial growth during the growth assay. The media was supplemented with β-Alanine, γ-glutamyl cysteine, glycyl-glycine, L-homoserine or N-acetyl methionine, all purchased from Sigma Aldrich, Germany, in varying concentrations (1×10^-5 to 1×10^-1% (w/v), see Table 2). The supplemented medium was mixed with a vortex mixture, filtered using a 0.22 μm filter and subsequently used in a growth assay. An IgG expressing CHO cell line was used (CHO-2: ATCC CRL 11397, producing IgG4). The cell lines were grown in the adherent conditions for a few passages and once confluent, they were transferred to animal-free conditions in the supplemented media described in Example 5. […] Chemically defined media with and without added amino acid derivatives were tested. No fresh media was added during the growth assay. Cells were counted using the […] counter (Innovatis, Germany). The cell counts were used to calculate the area under the growth curve and represented as dimensionless area under curve (AUC) values as described in detail in Ling, C. X, Huang, J. and Zhang, H. (2003), International joint conferences on artificial intelligence, pp. 329-341. The supernatant samples were taken every alternate days for the IgG production measurements. IgG production was measured using sandwich ELISA method. […] The cells were visually inspected using a phase contrast microscope (Zeiss Axiovert 25, 400× magnification). […] Only single cells were observed and no aggregation of cells was seen. The cell shape was also positively affected. […] This was in contrast with the observation that a lot of cell aggregates were present in CHO cell cultures grown in chemically defined medium without amino acid derivatives.

[1] = added at 1 × 10^−1 % w/v in IS CHO-CD medium
[2] = added at 1 × 10^−1 % w/v in IS CHO-CD medium, ratio of cumulative IgG (mg/ml) and AUC at day 11
[3] = added at 1 × 10^−2 % w/v in IS CHO-CD medium
[4] = added at 1 × 10^−3 % w/v in IS CHO-CD medium
[5] = added at 1 × 10^−4 % w/v in IS CHO-CD medium
[6] = added at 1 × 10^−5 % w/v in IS CHO-CD medium

Compound	Cell growth (area under curve) after 14 days [1]	Specific IgG production after 11 days [2]	Specific IgG production after 11 days [3]	Cell growth (area under curve) after 14 days [3]	Specific IgG production after 11 days [4]	Cell growth (area under curve) after 14 days [4]	Specific IgG production after 11 days [5]	Cell growth (area under curve) after 14 days [5]	Specific IgG production after 11 days [6]	Cell growth (area under curve) after 14 days [6]
NCC(=O)NCC(=O)O [Glycyl-glycine] (H-Gly-Gly-OH)	50.6	86.6	95.8	48.2	104.2	49.6	113.5	47.7	102.0	51.0
N[C@@H](CCO)C(=O)O [L-homoserine]	45.7	122.0	72.0	59.1	96.8	39.4	–	–	–	–
CSCC[C@H](NC(C)=O)C(=O)O [N-acetyl methionine]	48.6	91.9	90.4	47.9	94.4	46.0	90.3	38.6	81.3	41.2
NCCC(=O)O [β-alanine]	62.5	92.8	108.6	51.3	97.1	50.6	–	–	–	–
N[C@@H](CCC(=O)N[C@@H](CS)C(=O)O)C(=O)O [γ-glutamyl cysteine]	46.1	78.2	105.9	42.8	68.33	58.0	77.2	47.6	72.5	58.9
